The text below walks through data of ChEMBL document CHEMBL1201862, “PubChem BioAssay data set” (2004).

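96-well plates; 48 h exposure; 5 concentrations. Endpoints by linear interpolation between flanking doses. Not reached: highest tested concentration assigned. Abbreviation: GI50, concentration required for 50% inhibition of growth.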 Active and inactive are the calls of the source. No stated cut-off is given here; in the data, active = GI50 up to about 1.1 µM and inactive = higher.

Some test systems named below: PC-3; UACC-257; IGROV-1; OVCAR-5; HT-29; 786-0; HCT-116; Hs-578T; UACC-62; K562; T47D; KM12; SN12C; HCT-15; SNB-75; MOLT-4; NCI-H460; CCRF-CEM.
Experiment in all cases: DTP human tumour cell line panel, 48 h

As for `COc1ccc(C(=O)C(Br)C(Br)C(=O)O)cc1` (stereo not given), the GI50 with PC-3 was 56.5 µM (inactive); in the assay on UACC-257, > 100 µM (inactive); in the assay on IGROV-1 it was 51.1 µM (inactive); in the assay on OVCAR-5, 32.7 µM (inactive); with HT-29, 15.6 µM (inactive); in the assay with 786-0, 31.8 µM (inactive). For the same compound, the GI50 with HCT-116 is 20.8 µM (inactive); with Hs-578T, 35.2 µM (inactive); in the assay with UACC-62, 47.9 µM (inactive); with K562, 29 µM (inactive); in the assay on T47D, 33.1 µM (inactive); with KM12, 52.1 µM (inactive). Moreover, the GI50 in the assay with SN12C is 47.2 µM (inactive); in the assay with HCT-15, 37.5 µM; in the assay on SNB-75 it was 67.3 µM (inactive); in the assay with MOLT-4, 14 µM (inactive); in the assay on NCI-H460, 36.3 µM (inactive).

Take `CC(C)CCNC(=O)C(CC(C)C)NC(=O)[C@H]1O[C@@H]1C(=O)O` (stereo not given in full): the GI50 with PC-3, in the assay on UACC-257, with CCRF-CEM, with IGROV-1, in the assay on OVCAR-5 and in the assay on HT-29 was > 100 µM (inactive) throughout. For the same compound, the GI50 in the assay with 786-0, in the assay on HCT-116, in the assay with Hs-578T, in the assay on UACC-62, in the assay on K562 and with T47D was > 100 µM (inactive) in each case. For the same compound, the GI50 with KM12 is > 100 µM (inactive); with SN12C, > 100 µM (inactive); in the assay on HCT-15, greater than 100 µM; with SNB-75, > 100 µM (inactive); in the assay with MOLT-4, > 100 µM (inactive); with NCI-H460 it was > 100 µM (inactive).

Consider `ClCCN(CCCl)c1ccc(/C=N/Nc2ccnc3ccccc23)cc1`, for which the GI50 with PC-3 is 1.45 µM (inactive); in the assay on UACC-257, 1.84 µM (inactive); with CCRF-CEM it was 1.49 µM (inactive); with IGROV-1 it was 1.65 µM (inactive); with OVCAR-5, 1.5 µM (inactive); in the assay on HT-29 it was 0.736 µM (active). The GI50 is 1.78 µM (inactive) with 786-0; 1.21 µM (inactive) in the assay on HCT-116; 2.23 µM (inactive) with Hs-578T; 1.75 µM (inactive) with UACC-62; 1.39 µM (inactive) in the assay on K562; 1.76 µM (inactive) with T47D. The GI50 in the assay with KM12 was 1.58 µM (inactive); in the assay on SN12C it was 1.65 µM (inactive); in the assay on HCT-15, 1.35 µM; in the assay on SNB-75, 2.17 µM (inactive); in the assay with MOLT-4, 1.13 µM (inactive); in the assay with NCI-H460 it was 2.73 µM (inactive).

Turning to `CC(C)=Cc1cc(CCC/C(C)=C/Cc2c(O)cc(C)c(C(=O)O)c2O)co1`, the GI50 with PC-3 was > 100 µM (inactive); with UACC-257, > 100 µM (inactive); in the assay on CCRF-CEM it was 32.1 µM (inactive); in the assay on IGROV-1, > 100 µM (inactive); in the assay on OVCAR-5, > 100 µM (inactive); in the assay on HT-29, > 100 µM (inactive). Further, the GI50 with 786-0 was > 100 µM (inactive); in the assay on HCT-116, > 100 µM (inactive); in the assay on Hs-578T, 26.2 µM (inactive); with UACC-62, > 100 µM (inactive); in the assay with K562 it was 0.203 µM (active); in the assay on T47D, 67.1 µM (inactive). For the same compound, the GI50 is > 100 µM (inactive) in the assay on KM12; > 100 µM (inactive) with SN12C; greater than 100 µM with HCT-15; > 100 µM (inactive) in the assay with SNB-75; > 100 µM (inactive) with NCI-H460.

For `COC(=O)C1CCC(=S)N1C(=O)c1ccccc1` (stereo not given), the GI50 in the assay on PC-3, in the assay on UACC-257, with CCRF-CEM, in the assay on IGROV-1, with OVCAR-5 and in the assay with HT-29 was > 100 µM (inactive) in each case. Moreover, the GI50 in the assay on 786-0 was > 100 µM (inactive); with HCT-116, > 100 µM (inactive); with Hs-578T, > 100 µM (inactive); with UACC-62, > 100 µM (inactive); in the assay on K562, 4.94 µM (inactive); in the assay with T47D, > 100 µM (inactive). Besides, the GI50 with KM12 is > 100 µM (inactive); in the assay on HCT-15, greater than 100 µM; in the assay on SNB-75 it was > 100 µM (inactive); in the assay with MOLT-4, 26.5 µM (inactive); in the assay with NCI-H460, 40.6 µM (inactive).

Turning to `Cc1ccccc1/N=N/c1cc(C)c(/N=N/c2c(O)ccc3ccccc23)cc1C`, the GI50 in the assay on PC-3, in the assay with UACC-257, in the assay with CCRF-CEM, in the assay on IGROV-1, in the assay on OVCAR-5 and with HT-29 was > 100 µM (inactive) in each case. In addition, the GI50 with 786-0 was > 100 µM (inactive); with HCT-116, > 100 µM (inactive); in the assay with Hs-578T, 55.8 µM (inactive); in the assay on UACC-62 it was > 100 µM (inactive); in the assay with K562, > 100 µM (inactive); in the assay on T47D it was > 100 µM (inactive). Also, the GI50 in the assay on KM12 is > 100 µM (inactive); in the assay on SN12C, > 100 µM (inactive); in the assay with HCT-15 it was greater than 100 µM; with SNB-75, 73.1 µM (inactive); in the assay on MOLT-4, > 100 µM (inactive).

For `O=C1CCCCCCCCCCC1CN1CCCC1` (stereo not given), the GI50 in the assay on PC-3 was 30.8 µM (inactive); with UACC-257, 20 µM (inactive); in the assay on CCRF-CEM, 27.4 µM (inactive); in the assay on IGROV-1 it was 46 µM (inactive); with OVCAR-5, 22.3 µM (inactive); in the assay on HT-29, 17.9 µM (inactive). Also, the GI50 in the assay on 786-0 is 20.4 µM (inactive); with HCT-116, 33.4 µM (inactive); in the assay on Hs-578T, 17.9 µM (inactive); in the assay with UACC-62, 17.1 µM (inactive); in the assay on K562, 53.8 µM (inactive); with T47D, 46.1 µM (inactive). Moreover, the GI50 with KM12 was 25.6 µM (inactive); in the assay on SN12C, 41.1 µM (inactive); in the assay on HCT-15, 32.8 µM; in the assay on SNB-75, 32.9 µM (inactive); in the assay with MOLT-4 it was 39.4 µM (inactive); in the assay on NCI-H460, 26.9 µM (inactive).

On to `COc1ccc(Oc2cccc(/C=C3/C(=O)Nc4ccccc43)c2)cc1`, for which the GI50 with PC-3 is 5.98 µM (inactive); in the assay with UACC-257, 5.79 µM (inactive); in the assay on CCRF-CEM, 4.21 µM (inactive); in the assay with IGROV-1, 7.91 µM (inactive); in the assay with OVCAR-5 it was 17.7 µM (inactive); in the assay with HT-29, 3.73 µM (inactive). Besides, the GI50 with 786-0 was 11.8 µM (inactive); in the assay on HCT-116 it was 3.6 µM (inactive); with Hs-578T it was 15.4 µM (inactive); in the assay on K562, 1.57 µM (inactive); in the assay with T47D it was 1.77 µM (inactive); with KM12, 5.02 µM (inactive). For the same compound, the GI50 in the assay with SN12C was 10.9 µM (inactive); in the assay on HCT-15 it was 10.2 µM; in the assay with SNB-75, 15 µM (inactive); in the assay with MOLT-4, 4 µM (inactive); in the assay with NCI-H460, 11.3 µM (inactive).

In the case of `Cc1nc2c(c(N3CCN(C)CC3)n1)Cc1ccccc1-2`, the GI50 is 58.7 µM (inactive) in the assay on PC-3; 57 µM (inactive) with UACC-257; 65.2 µM (inactive) with CCRF-CEM; 80.7 µM (inactive) in the assay with OVCAR-5; 44.1 µM (inactive) with HT-29; 68.2 µM (inactive) in the assay on 786-0. Moreover, the GI50 in the assay with HCT-116 is 46.5 µM (inactive); in the assay with Hs-578T, 65 µM (inactive); in the assay on UACC-62, 42.6 µM (inactive); with K562 it was 34.6 µM (inactive); in the assay on T47D, > 100 µM (inactive); with KM12, 48 µM (inactive). The GI50 is 32.5 µM in the assay with HCT-15, 91.2 µM (inactive) in the assay on SNB-75, > 10 µM (inactive) with MOLT-4 and 18.8 µM (inactive) in the assay on NCI-H460.
